Test results as given in publication PMC3906678 (Clinical cancer research : an official journal of the …, 2012).
Read-outs that look alike come from different tables or passages of the source.

How the values were obtained:
metastatic melanoma [1] = conditions: temsirolimus; cited from earlier work
P-AKT Ser473 [2] = conditions: single-agent, matching biopsies, head and neck cancer patients; cited from earlier work
P-S6 = conditions: biopsies from treated patients; cited from earlier work
P-AKT Ser473 [3] = conditions: biopsies from treated patients; cited from earlier work
[4] = human, in vivo
metastatic melanoma [5] = conditions: cited from earlier work

For `CO[C@H]1C[C@@H]2CC[C@@H](C)[C@@](O)(O2)C(=O)C(=O)N2CCCC[C@H]2C(=O)O[C@H]([C@H](C)C[C@@H]2CC[C@@H](OC(=O)C(C)(CO)CO)[C@H](OC)C2)CC(=O)[C@H](C)/C=C(\C)[C@@H](O)[C@@H](OC)C(=O)[C@H](C)C[C@H](C)/C=C/C=C/C=C/1C` [Temsirolimus], the “Patients who achieved a clinical response” value (metastatic melanoma [1]) is given as 1 of 33 and the “Change in P-AKT Ser473” value (P-AKT Ser473 [2]) is given as “lack of increase”.
In the case of `CO[C@H]1C[C@@H]2CC[C@@H](C)[C@@](O)(O2)C(=O)C(=O)N2CCCC[C@H]2C(=O)O[C@H]([C@H](C)C[C@@H]2CC[C@@H](OCCO)[C@H](OC)C2)CC(=O)[C@H](C)/C=C(\C)[C@@H](O)[C@@H](OC)C(=O)[C@H](C)C[C@H](C)/C=C/C=C/C=C/1C` [everolimus], the “Change in P-S6” value (P-S6) is given as “decrease” and the “Change in P-AKT Ser473” value (P-AKT Ser473 [3]) is given as “increase”.
In the case of `CNC(=O)c1cc(Oc2ccc(NC(=O)Nc3ccc(Cl)c(C(F)(F)F)c3)cc2)ccn1` [Sorafenib], the “Mean Cmax and Cavg at steady-state on Day 15 compared to Day 1” value [4] is given as 2-4 fold, the Clinical response rate (metastatic melanoma [5]; melanoma patients, sorafenib) is given as 3% and the “Patients who achieved a clinical response” value (metastatic melanoma [5]; metastatic melanoma patients, sorafenib monotherapy) is given as “one of 37”.
